Columns and labels:
Nampt = Nampt (Homo sapiens, UniProt P43490); conditions: literature (ref. 30); cited from earlier work
[1] = test system: Per2 and Dbp gene expression in MEFs; assay: Per2 and Dbp gene expression in serum-entrained MEFs treated with FK866, q-PCR; format: cell-based, mouse; conditions: MEFs pretreated with 10 nM FK866, then serum-stimulated
Procedure: Each quantitative real-time RT-PCR was performed using the Chromo4 real time detection system (BIO-RAD). […] The reaction was first incubated at 95° C. for 3 min, followed by 40 cycles at 95° C. for 30 s and 60° C. for 1 min.

BMAL1 Lys537 acetylation = BMAL1 Lys537 acetylation profile in serum-entrained MEFs treated with FK866; format: cell-based, mouse; conditions: cultured MEFs
Procedure: This illustrates Nampt modulation of the circadian clock. Panel A depicts Pert and Dbp gene expression levels in serum-entrained MEFs treated with 10 nM FK866 or EtOH as control (solvent:ctrl) were analyzed by q-PCR. The highest value for each gene in EtOH treated MEFs was set to 1. All data presented are the means±SEM of three independent samples. […] Cell extracts prepared from indicated time points were processed to visualize BMAL1 acetylation using the anti-acetyl specific BMAL1 antibody as described herein. Input samples were probed with anti-BMAL1 and anti-GAPDH antibodies. Panel C is a schematic representation of the transcription-enzymatic interplay by which the circadian machinery governs the intracellular levels of NAD^+. The NAD^+-dependent deacetylase SIRT1 is thereby controlling the oscillatory synthesis of its own coenzyme.
NAMPT inhibitor “FK866” treatment experiments MEFs in growing phase (−50% confluent) were pre-treated with 10 nM FK866 dissolved in ethanol/serum-free DMEM 16 hr prior to high serum treatment. After 2 hr serum treatment, medium were changed to serum-free medium containing 10 nM FK866. […]

Nampt, sequence (P43490 whole entry): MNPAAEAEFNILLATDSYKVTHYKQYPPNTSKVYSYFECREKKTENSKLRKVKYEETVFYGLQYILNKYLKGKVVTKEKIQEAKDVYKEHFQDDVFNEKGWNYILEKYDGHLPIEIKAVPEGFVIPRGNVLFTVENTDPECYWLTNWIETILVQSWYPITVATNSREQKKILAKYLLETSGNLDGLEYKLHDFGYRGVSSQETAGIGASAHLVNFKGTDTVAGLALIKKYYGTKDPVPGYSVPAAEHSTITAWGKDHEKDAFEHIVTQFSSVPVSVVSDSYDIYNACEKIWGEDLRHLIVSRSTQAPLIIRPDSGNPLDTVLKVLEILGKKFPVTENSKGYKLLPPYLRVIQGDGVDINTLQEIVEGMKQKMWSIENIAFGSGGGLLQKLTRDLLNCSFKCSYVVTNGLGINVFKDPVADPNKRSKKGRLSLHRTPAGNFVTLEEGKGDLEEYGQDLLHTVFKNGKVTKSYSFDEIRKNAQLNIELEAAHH

Compound: O=C(/C=C/c1cccnc1)NCCCCC1CCN(C(=O)c2ccccc2)CC1 [FK866]
- inhibition of Nampt enzymatic activity (Nampt): specifically inhibits Nampt enzymatic activity
- increase of amplitude of oscillation (Per2 and Dbp), average [1]: 30-40%
- onset of the circadian peak for both genes (Per2 and Dbp), earlier by [1]: 3 to 4 h
- BMAL1 acetylation at K537 (BMAL1 Lys537 acetylation; 10 nM FK866): heavily increased and displays a broader peak
- effect on BMAL1 protein levels (BMAL1 Lys537 acetylation; 10 nM FK866, any time of the circadian cycle): no major effect

From patent US20110269817A1, “COMPOSITIONS AND METHODS RELATED TO SIRT1 FUNCTION” (The Regents of the University of California, priority 2008, published 2011)
